The target of this experiment is [35S]-TBPS binding, rat brain cortical membranes. Description: Steroid inhibition of [35S]-TBPS binding. The following applies: 3 nM [35S]-TBPS, in the presence of 5 mM GABA. The procedure: [^35S]-t-Butylbicyclophosphorothionate (TBPS) binding assays using rat brain cortical membranes in the presence of 5 mM GABA has been described (Gee et al, J. Pharmacol. Exp. Ther. 1987, 241, 346-353; Hawkinson et al, Mol. Pharmacol. 1994, 46, 977-985; Lewin, A. H et al., Mol. Pharmacol. 1989, 35, 189-194).
Briefly, cortices are rapidly removed following decapitation of carbon dioxide-anesthetized Sprague-Dawley rats (200-250 g). The cortices are homogenized in 10 volumes of ice-cold 0.32 M sucrose using a glass/teflon homogenizer and centrifuged at 1500×g for 10 min at 4° C. The resultant supernatants are centrifuged at 10,000×g for 20 min at 4° C. to obtain the P2 pellets. The P2 pellets are resuspended in 200 mM NaCl/50 mM Na—K phosphate pH 7.4 buffer and centrifuged at 10,000×g for 10 min at 4° C. This washing procedure is repeated twice and the pellets are resuspended in 10 volumes of buffer. Aliquots ([…]) of the membrane suspensions are incubated with 3 nM [^35S]-TBPS and […] aliquots of test drug dissolved in dimethyl sulfoxide (DMSO) (final 0.5%) in the presence of 5 mM GABA. The incubation is brought to a final volume of 1.0 mL with buffer. Nonspecific binding is determined in the presence of […] and ranged from 15 to 25%. Following a 90 min incubation at room temp, the assays are terminated by filtration through glass fiber filters (Schleicher and Schuell No. 32) using a cell harvester (Brandel) and rinsed three times with ice-cold buffer. Filter bound radioactivity is measured by liquid scintillation spectrometry. Non-linear curve fitting of the overall data for each drug averaged for each concentration is done using Prism (GraphPad). […] The concentration of test compound producing 50% inhibition (IC50) of specific binding and the maximal extent of inhibition (Imax) are determined for the individual experiments with the same model used for the overall data and then the means±SEM.s of the individual experiments are calculated.
Various compounds are or can be screened to determine their potential as modulators of [^35S]-TBPS binding in vitro. These assays are or can be performed in accordance with the above

As a reminder, the IC50 is the concentration that inhibits the measured activity by half. Take `CCOC[C@@]1(O)CC[C@H]2[C@H](CC[C@@H]3[C@@H]2CC[C@]2(C)[C@@H]([C@@H](C)Cn4ccnn4)CC[C@@H]32)C1` [Example 268, (3R,5R,8R,9R,10S,13S,14S,17R)-17-((R)-1-(1H-1,2,3-triazol-1-yl)propan-2-yl)-3-(ethoxymethyl)-13-methylhexadecahydro-1H-cyclopenta[a]phenanthren-3-ol]: the IC50 was < 0.1 µM.

Turning to `C[C@H](N[C@H](C)[C@H]1CC[C@H]2[C@@H]3CC[C@@H]4C[C@](C)(O)CC[C@@H]4[C@H]3CC[C@]12C)c1ccccc1` [Example 209], the IC50 was 0.1 to 1 µM.

With `CCC[C@@]1(O)CC[C@H]2[C@@H](CC[C@@H]3[C@@H]2CC[C@]2(C)[C@@H]([C@H](C)Cn4nnnc4C)CC[C@@H]32)C1` [Example 331, (3R,5S,8R,9R,10S,13S,14S,17R)-13-methyl-17-((S)-1-(5-methyl-1H-tetrazol-1-yl)propan-2-yl)-3-propylhexadecahydro-1H-cyclopenta[a]phenanthren-3-ol], the IC50 is ≥ 10 µM.

For `CC[C@]12CC[C@@](C)(O)C[C@H]1CC[C@H]1[C@@H]3CC[C@H](C(C)Cn4cc(C#N)cn4)[C@@]3(C)CC[C@@H]12` (stereo in doubt) [Example 325, 1-((S)-2-((3R,5R,8S,9S,10S,13S,14S,17R)-10-ethyl-3-hydroxy-3,13-dimethylhexadecahydro-1H-cyclopenta[a]phenanthren-17-yl)propyl)-1H-pyrazole-4-carbonitrile], the IC50 is < 0.1 µM.

As to `C[C@H]1CCCC(=O)N1C[C@H]1CC[C@H]2[C@@H]3CC[C@@H]4C[C@](C)(O)CC[C@@H]4[C@H]3CC[C@]12C` [Example 6, (S)-1-(((3R,5R,8R,9R,10S,13S,14S,17S)-3-hydroxy-3,13-dimethylhexadecahydro-1H-cyclopenta[a]phenanthren-17-yl)methyl)-6-methylpiperidin-2-one], the IC50 is 1 to 10 µM.

For `COC[C@@]1(O)CC[C@H]2[C@H](CC[C@@H]3[C@@H]2CC[C@]2(C)[C@@H]([C@@H](C)NC(=O)c4cc(C)nn4C)CC[C@@H]32)C1` [Example 118], the IC50 was in the range of 0.1 to 1 µM.

For the compound `COC[C@@]1(O)CC[C@H]2[C@H](CC[C@@H]3[C@@H]2CC[C@]2(C)[C@@H]([C@@H](C)Cc4ccc(C#N)nc4)CC[C@@H]32)C1` [Example 404, 5-((S)-2-((3R,5R,8R,9R,10S,13R,14S,17R)-3-hydroxy-3-(methoxymethyl)-13-methylhexadecahydro-1H-cyclopenta[a]phenanthren-17-yl)propyl)picolinonitrile], the IC50 was < 0.1 µM.

`COC[C@@]1(O)CC[C@H]2[C@@H](CC[C@@H]3[C@@H]2CC[C@]2(C)[C@@H]([C@H](C)Cn4nnnc4C)CC[C@@H]32)C1` [Example 56, (3R,5S,8R,9R,10S,13S,14S,17R)-3-(methoxymethyl)-13-methyl-17-((S)-1-(5-methyl-1H-tetrazol-1-yl)propan-2-yl)hexadecahydro-1H-cyclopenta[a]phenanthren-3-ol]: the IC50 is 0.1 to 1 µM.

Consider `CCOC[C@@]1(O)CC[C@H]2[C@H](CC[C@@H]3[C@@H]2CC[C@]2(C)[C@@H]([C@@H](CC)Nc4ccc(C#N)nc4)CC[C@@H]32)C1` [Example 503], for which the half-inhibitory concentration (IC50) lay within 0.1 to 1 µM.

Regarding `COC[C@@]1(O)CC[C@H]2[C@H](CC[C@@H]3[C@@H]2CC[C@@]2(C)[C@H]3CC[C@]2(O)[C@@H](C)Cn2cc(C#N)cn2)C1` [Example 354], the IC50 fell in the range of 1 to 10 µM.

As for `CCOC[C@@]1(O)CC[C@H]2[C@H](CC[C@@H]3[C@@H]2CC[C@]2(C)[C@@H]([C@@H](C)N[C@H](C)c4ccccc4)CC[C@@H]32)C1` [Example 206], the IC50 fell in the range of 0.1 to 1 µM.
